Experimental data taken from the supplement of paper PMC11061612.

Columns and labels:
Assay in all cases: Bliss excess, mean over the matrix (fraction); higher = more synergy
[1] = system: SW1463 (Colorectal Carcinoma)
Method in brief: (§1)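 Bliss excess equals the observed combination effect minus the expected value EA + EB − EA·EB, where EA and EB are the effects of each agent alone. Combination Emax is the second-highest inhibition within the matrix. Inhibition was scaled from CellTiter-Glo 2.0 luminescence, with 0 set by vehicle wells and 1 by blank wells, after 72 hours of two-drug dosing of cells plated in 1536-well plates.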

[2] = system: NCI-H2170 (Squamous Cell Lung Carcinoma)
Method in brief: as §1

[3] = system: NCI-H1975 (Lung Adenocarcinoma)
Method in brief: as §1

[4] = system: HT-3 (Cervical Carcinoma)
Method in brief: as §1

[5] = system: SBC-5 (Small Cell Lung Carcinoma)
Method in brief: as §1

[6] = system: HT-1197 (Bladder Carcinoma)
Method in brief: as §1

[7] = system: BC-1 (B-Cell Non-Hodgkin's Lymphoma)
Method in brief: as §1

[8] = system: IGROV-1 (Ovarian Carcinoma)
Method in brief: as §1

[9] = system: TK (B-Cell Non-Hodgkin's Lymphoma)
Method in brief: as §1

[10] = system: KNS-62 (Squamous Cell Lung Carcinoma)
Method in brief: as §1

[11] = system: DK-MG (Glioblastoma)
Method in brief: as §1

[12] = system: OCI-M1 (Acute Myeloid Leukemia)
Method in brief: as §1

[13] = system: SCC90 (Head and Neck Carcinoma)
Method in brief: as §1

[14] = system: GCIY (Gastric Carcinoma)
Method in brief: as §1

[15] = system: MDA-MB-175-VII (Breast Carcinoma)
Method in brief: as §1

[16] = system: NTERA-2-cl-D1 (Other Solid Carcinomas)
Method in brief: as §1

[17] = system: ATN-1 (T-Lymphoblastic Leukemia)
Method in brief: as §1

[18] = system: BT-474 (Breast Carcinoma)
Method in brief: as §1

[19] = system: MG-63 (Osteosarcoma)
Method in brief: as §1

[20] = system: SUP-HD1 (Hodgkin's Lymphoma)
Method in brief: as §1

SMILES	Bliss excess [1]	Bliss excess [2]	Bliss excess [3]	Bliss excess [4]	Bliss excess [5]	Bliss excess [6]	Bliss excess [7]	Bliss excess [8]	Bliss excess [9]	Bliss excess [10]	Bliss excess [11]	Bliss excess [12]	Bliss excess [13]	Bliss excess [14]	Bliss excess [15]	Bliss excess [16]	Bliss excess [17]	Bliss excess [18]	Bliss excess [19]	Bliss excess [20]
CC1(C)CCC(CN2CCN(c3ccc(C(=O)NS(=O)(=O)c4ccc(NCC5CCOCC5)c([N+](=O)[O-])c4)c(Oc4cnc5[nH]ccc5c4)c3)CC2)=C(c2ccc(Cl)cc2)C1 [Venetoclax] + CN(C)CCCOc1ccc(-c2ccc3ncc4c(c3c2)n(C2CCOCC2)c(=O)n4C)cn1 [AZD0156] (first compound max 1 µM, 7x7, partner max 1 µM)	-0.045	0.024	-0.0611	-0.0423	0.011	-0.0266	0.0066	-0.0236	-0.0227	-0.0183	-0.0222	-0.0299	0.0217	0.0131	-0.0319	-0.0372	0.0437	-0.0072	0.0063	-0.0962
CC1(C)CCC(CN2CCN(c3ccc(C(=O)NS(=O)(=O)c4ccc(NCC5CCOCC5)c([N+](=O)[O-])c4)c(Oc4cnc5[nH]ccc5c4)c3)CC2)=C(c2ccc(Cl)cc2)C1 [Venetoclax] + COc1cc(Nc2ncc3c(n2)-c2ccc(Cl)cc2C(c2c(F)cccc2OC)=NC3)ccc1C(=O)O [Alisertib] (first compound max 1 µM, 7x7, partner max 10 µM)	0.017	-0.0702	-0.0453	-0.0262	0.024	-0.0358	-0.0492	-0.0588	0.223	-0.0512	-0.0012	0.0977	0.135	0.0271	-0.0221	0.0304	-0.013	-0.0136	-0.0116	0.0776
CC1(C)CCC(CN2CCN(c3ccc(C(=O)NS(=O)(=O)c4ccc(NCC5CCOCC5)c([N+](=O)[O-])c4)c(Oc4cnc5[nH]ccc5c4)c3)CC2)=C(c2ccc(Cl)cc2)C1 [Venetoclax] + C[C@@H]1COCCN1C2=NC(=NC(=C2)C3(CC3)[S@](=N)(=O)C)C4=C5C=CNC5=NC=C4 [AZD6738] (first compound max 1 µM, 7x7, partner max 10 µM)	-0.06	-0.0019	-0.0391	-0.0419	-0.0486	-0.0033	0.0087	-0.0075	0.0223	-0.121	-0.0914	-0.0106	-0.014	-0.0468	-0.0433	-0.0238	-0.0216	-0.0265	-0.0758	-0.0605
CC1(C)CCC(CN2CCN(c3ccc(C(=O)NS(=O)(=O)c4ccc(NCC5CCOCC5)c([N+](=O)[O-])c4)c(Oc4cnc5[nH]ccc5c4)c3)CC2)=C(c2ccc(Cl)cc2)C1 [Venetoclax] + C[C@@H](Nc1cc(F)cc(F)c1)c1cc(C(=O)N(C)C)cc2c(=O)cc(N3CCOCC3)oc12 [AZD8186] (first compound max 1 µM, 7x7, partner max 3 µM)	-0.0393	-0.0739	-0.0203	-0.0359	-0.022	-0.0785	-0.0157	0.0084	-0.0454	-0.0545	-0.0425	-0.0158	0.048	-0.0047	-0.0321	-0.0199	0.0347	-0.055	-0.0636	-0.025
CC1(C)CCC(CN2CCN(c3ccc(C(=O)NS(=O)(=O)c4ccc(NCC5CCOCC5)c([N+](=O)[O-])c4)c(Oc4cnc5[nH]ccc5c4)c3)CC2)=C(c2ccc(Cl)cc2)C1 [Venetoclax] + Cc1cc2ncnn2cc1Nc1ncc2c(n1)n(C1CCOCC1)c(=O)n2C [AZD7648] (first compound max 1 µM, 7x7, partner max 10 µM)	-0.0479	-0.0109	-0.0114	-0.016	0.0086	-0.0208	0.017	-0.0589	0.0006	-0.0255	-0.0355	-0.0153	0.118	-0.0232	-0.0444	-0.0216	0.0196	-0.0622	-0.0405	-0.0659
CC1(C)CCC(CN2CCN(c3ccc(C(=O)NS(=O)(=O)c4ccc(NCC5CCOCC5)c([N+](=O)[O-])c4)c(Oc4cnc5[nH]ccc5c4)c3)CC2)=C(c2ccc(Cl)cc2)C1 [Venetoclax] + Cn1cnc2c(F)c(Nc3ccc(Br)cc3Cl)c(C(=O)NOCCO)cc21 [Selumetinib] (first compound max 1 µM, 7x7, partner max 3 µM)	-0.0631	-0.0427	-0.0631	-0.0218	-0.0096	-0.0072	0.0211	-0.0068	-0.0251	-0.047	-0.0177	-0.0203	0.161	-0.12	-0.0556	-0.0415	-0.0324	-0.0419	-0.0292	-0.039
